Assay results taken from patent US20190375708A1 (VenatoRx Pharmaceuticals, Inc., priority 2018, published 2019).

What was measured:
[1] = test system: HBV replication in HepAD38 cells; test: Anti-HBV replication assay in HepAD38 cells (QPCR of extracellular HBV DNA); assay type: cell-based, HBV (genotype D, serotype ayw); conditions: Hepatitis B virus, 168 h, 7 days incubation, extracellular HBV DNA by QPCR, read-out: Anti-HBV EC50
Summary of the method: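 Stably transfected HepG2-derived HepAD38 cells express HBV (genotype D, ayw) once tetracycline is withdrawn. Compounds act for 7 days, after which secreted HBV DNA is quantified by QPCR relative to DMSO-treated wells.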

[2] = In vitro cytotoxicity assay (MTT cell viability) in HepG2 cells; assay type: cell-based, human; conditions: human
Summary of the method: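 Viability measured by MTT conversion, absorbance at 492 nm, as percent of vehicle-treated wells. Compounds spanned 30 μM to 1.0 nM in half-log steps over a 7-day exposure of parental HepG2 cells; CC50 derived by 4-parameter curve fit.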

SMILES: Cc1cc(NC(=O)c2c(Cl)c(C(=O)C(=O)NCc3cnc(N)s3)n3c2CCC3)ccc1F [Example 552, 5-(2-(((2-aminothiazol-5-yl)methyl)amino)-2-oxoacetyl)-6-chloro-N-(4-fluoro-3-methylphenyl)-2,3-dihydro-1H-pyrrolizine-7-carboxamide]
- EC50 [1]: < 0.05 µM
- CC50 at 7 days [2]: 5 to 30 µM

SMILES: CC[C@H](C)NC(=O)C(=O)c1c(Cl)c(C(=O)Nc2cnc(F)c(C)c2)c2n1CCCC2 [Example 729, (S)-3-(2-(sec-butylamino)-2-oxoacetyl)-2-chloro-N-(6-fluoro-5-methylpyridin-3-yl)-5,6,7,8-tetrahydroindolizine-1-carboxamide]
- EC50 [1]: 0.05 to 0.499 µM
- CC50 at 7 days [2]: > 30 µM

SMILES: Cc1c(C(=O)Nc2ccc(F)c(Cl)c2)c(C)n(C)c1C(=O)C(=O)N[C@H]1CC[C@@H](O)CC1 [Example 251, N-(3-chloro-4-fluorophenyl)-5-(2-(((1s,4s)-4-hydroxycyclohexyl)amino)-2-oxoacetyl)-1,2,4-trimethyl-1H-pyrrole-3-carboxamide]
- EC50 [1]: < 0.05 µM
- CC50 at 7 days [2]: > 30 µM

SMILES: Cc1cc(NC(=O)c2c(C)c(C(=O)C(=O)NC(C)(C)CN3CCN(C)CC3)n(C)c2C)ccc1F [Example 651, N-(4-fluoro-3-methylphenyl)-1,2,4-trimethyl-5-(2-((2-methyl-1-(4-methylpiperazin-1-yl)propan-2-yl)amino)-2-oxoacetyl)-1H-pyrrole-3-carboxamide]
- EC50 [1]: < 0.05 µM
- CC50 at 7 days [2]: > 30 µM

SMILES: Cc1noc([C@H](C)NC(=O)C(=O)c2c(Cl)c(C(=O)Nc3ccc(F)c(Cl)c3)c3n2CCCC3)n1 [Example 523, (S)-2-chloro-N-(3-chloro-4-fluorophenyl)-3-(2-((1-(3-methyl-1,2,4-oxadiazol-5-yl)ethyl)amino)-2-oxoacetyl)-5,6,7,8-tetrahydroindolizine-1-carboxamide]
- EC50 [1]: 0.05 to 0.499 µM
- CC50 at 7 days [2]: 5 to 30 µM

SMILES: Cc1cc(NC(=O)c2c(C)c(C(=O)C(=O)Nc3ccn(CCO)n3)n(C)c2C)ccc1F [Example 307, N-(4-fluoro-3-methylphenyl)-5-(2-((1-(2-hydroxyethyl)-1H-pyrazol-3-yl)amino)-2-oxoacetyl)-1,2,4-trimethyl-1H-pyrrole-3-carboxamide]
- EC50 [1]: < 0.05 µM
- CC50 at 7 days [2]: > 30 µM

SMILES: CC(C)(C)NC(=O)C(=O)c1cc(C(=O)Nc2ccc(F)c(Cl)c2)c2n1CCCC2 [Example 399, 3-(2-(tert-butylamino)-2-oxoacetyl)-N-(3-chloro-4-fluorophenyl)-5,6,7,8-tetrahydroindolizine-1-carboxamide]
- EC50 [1]: 0.05 to 0.499 µM
- CC50 at 7 days [2]: > 30 µM

SMILES: Cc1cc(NC(=O)c2c(C)c(C(=O)C(=O)N[C@]3(C(F)(F)F)CC[C@H](O)CC3)n(C)c2C)ccc1F [Example 282, N-(4-fluoro-3-methylphenyl)-5-(2-(((1s,4s)-4-hydroxy-1-(trifluoromethyl)cyclohexyl)amino)-2-oxoacetyl)-1,2,4-trimethyl-1H-pyrrole-3-carboxamide]
- EC50 [1]: < 0.05 µM
- CC50 at 7 days [2]: > 30 µM

SMILES: CC[C@H](C)NC(=O)C(=O)c1c(Cl)c(C(=O)Nc2cnc(F)c(C)c2)c2n1CCC2 [Example 733, (S)-5-(2-(sec-butylamino)-2-oxoacetyl)-6-chloro-N-(6-fluoro-5-methylpyridin-3-yl)-2,3-dihydro-1H-pyrrolizine-7-carboxamide]
- EC50 [1]: < 0.05 µM
- CC50 at 7 days [2]: 5 to 30 µM

SMILES: Cc1c(C(=O)Nc2cccc(C(F)F)c2)c(C)n(C)c1C(=O)C(=O)N[C@H]1CC[C@H](O)CC1 [Example 697, N-(3-(difluoromethyl)phenyl)-5-(2-(((1r,4r)-4-hydroxycyclohexyl)amino)-2-oxoacetyl)-1,2,4-trimethyl-1H-pyrrole-3-carboxamide]
- EC50 [1]: < 0.05 µM
- CC50 at 7 days [2]: > 30 µM

SMILES: Cc1cc(NC(=O)c2c(C)c(C(=O)C(=O)N[C@H]3c4ccccc4C[C@@H]3O)n(C)c2C)ccc1F [Example 259, N-(4-fluoro-3-methylphenyl)-5-(2-(((1S,2S)-2-hydroxy-2,3-dihydro-1H-inden-1-yl)amino)-2-oxoacetyl)-1,2,4-trimethyl-1H-pyrrole-3-carboxamide]
- EC50 [1]: < 0.05 µM
- CC50 at 7 days [2]: > 30 µM
